Results on eight molecules are retold here after PubChem BioAssay (NCI).

Among the test systems are UO-31 renal; OVCAR-4 ovarian; SN12C renal; LOX IMVI melanoma; HCC-2998 colon; MDA-MB-435; SF-295 CNS; U251 CNS; HCT-116 colon; HL-60(TB) leukemia.
Common to all, as to experiment: inhibition of tumour cell growth, NCI panel, 48 h

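Cultured in 96-well plates, cells were exposed to test compound for 48 hours across five concentrations. The concentration for 50% growth inhibition is given as GI50. Definition used: TGI = concentration required for complete inhibition of growth.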 Some results are limits rather than exact numbers.

For `Nc1c(C(=O)c2ccccc2)cnn1-c1ccc(F)cc1`, the GI50 in the test with UO-31 renal, in the test on OVCAR-4 ovarian, with SN12C renal, with LOX IMVI melanoma, in the test on HCC-2998 colon and with MDA-MB-435 was more than 25 µM each time. Moreover, the GI50 in the test on SF-295 CNS, in the test with U251 CNS, in the test on HCT-116 colon and in the test on HL-60(TB) leukemia was more than 25 µM throughout. For the same molecule, the TGI in the test on UO-31 renal, in the test with OVCAR-4 ovarian, in the test on SN12C renal, with LOX IMVI melanoma, in the test with HCC-2998 colon and with MDA-MB-435 was more than 25 µM throughout. Further, the TGI in the test with SF-295 CNS, in the test with U251 CNS, with HCT-116 colon and with HL-60(TB) leukemia was more than 25 µM in each case.

Take `CN(C)CCC(=O)C(=Cc1ccc(O)cc1)C(=O)CCN(C)C`: the GI50 with UO-31 renal was 25.2 µM; with OVCAR-4 ovarian, 26.2 µM; in the test with SN12C renal, more than 100 µM; with LOX IMVI melanoma it was 79.6 µM; with HCC-2998 colon it was more than 100 µM; with MDA-MB-435, more than 100 µM. Further, the GI50 in the test on SF-295 CNS is more than 100 µM; in the test on U251 CNS, 61.5 µM; in the test on HCT-116 colon, 44.8 µM; with HL-60(TB) leukemia, more than 100 µM. In addition, the TGI in the test with UO-31 renal is 69.8 µM; in the test on OVCAR-4 ovarian it was more than 100 µM; in the test on SN12C renal, more than 100 µM; in the test on LOX IMVI melanoma, more than 100 µM; in the test on HCC-2998 colon, more than 100 µM; in the test on MDA-MB-435, more than 100 µM. Further, the TGI in the test with SF-295 CNS, with U251 CNS, in the test on HCT-116 colon and with HL-60(TB) leukemia was more than 100 µM in each case.

As to `CN(C)C(=S)Sc1ccc([N+](=O)[O-])cc1[N+](=O)[O-]`, the GI50 with UO-31 renal is 1.79 µM; in the test with OVCAR-4 ovarian, 1.61 µM; in the test on SN12C renal, 3.24 µM; with LOX IMVI melanoma it was 1.53 µM; in the test on HCC-2998 colon, 6.9 µM; with MDA-MB-435, 1.54 µM. Besides, the GI50 was 14.5 µM with SF-295 CNS, 1.58 µM in the test on U251 CNS, 1.54 µM in the test with HCT-116 colon and 2.68 µM in the test with HL-60(TB) leukemia. Also, the TGI in the test with UO-31 renal was 6.29 µM; in the test on OVCAR-4 ovarian, 13.9 µM; in the test with SN12C renal, 11.2 µM; in the test with LOX IMVI melanoma, 3.63 µM; in the test with HCC-2998 colon, 17.4 µM; in the test with MDA-MB-435 it was 5.36 µM. The TGI with SF-295 CNS turned out to be 29 µM; in the test on U251 CNS it was 8.97 µM; with HCT-116 colon it was 3.7 µM; in the test on HL-60(TB) leukemia, 8.54 µM.

Turning to `CCc1ccc(/C=C/c2ccc(O)c3ncccc23)[n+](C)c1`, the GI50 in the test with UO-31 renal is 7.4 µM; with OVCAR-4 ovarian, 5.6 µM; in the test with SN12C renal, 0.457 µM; in the test with LOX IMVI melanoma, 35.8 µM; in the test on HCC-2998 colon it was more than 30.5 µM; in the test with MDA-MB-435 it was 4.49 µM. For the same molecule, the GI50 with SF-295 CNS was 1.88 µM; with U251 CNS, 0.661 µM; in the test with HCT-116 colon, 4.02 µM; in the test on HL-60(TB) leukemia it was 18.8 µM. The TGI in the test with UO-31 renal, in the test on OVCAR-4 ovarian, with SN12C renal, with LOX IMVI melanoma, with HCC-2998 colon and with MDA-MB-435 was more than 100 µM in each case. For the same molecule, the TGI in the test with SF-295 CNS was more than 100 µM; in the test with U251 CNS it was more than 100 µM; in the test on HCT-116 colon, more than 100 µM; in the test with HL-60(TB) leukemia it was 73.2 µM.

For the molecule `CN1CC[C@@H](c2c(O)cc(O)c3c(=O)cc(-c4ccc(C(F)(F)F)cc4Cl)oc23)[C@@H]1CO`, the GI50 in the test with UO-31 renal was 11 µM; with OVCAR-4 ovarian, 23.6 µM; with SN12C renal it was 16.4 µM; in the test on LOX IMVI melanoma, 11.9 µM; in the test on HCC-2998 colon, 13.7 µM; in the test on MDA-MB-435, 10 µM. In addition, the GI50 with SF-295 CNS was 16.7 µM; in the test on U251 CNS, 16.7 µM; with HCT-116 colon it was 11.4 µM; with HL-60(TB) leukemia, 8.37 µM. Further, the TGI in the test with UO-31 renal worked out at 37.8 µM; in the test on OVCAR-4 ovarian it was 83.2 µM; in the test with SN12C renal it was 44.6 µM; in the test with LOX IMVI melanoma it was 25.6 µM; with HCC-2998 colon it was 33.1 µM; in the test with MDA-MB-435, 23 µM. The TGI in the test on SF-295 CNS was 36.4 µM; with U251 CNS, 33.9 µM; in the test with HCT-116 colon it was 24.2 µM; in the test with HL-60(TB) leukemia it was 33.6 µM.

`CC1(C)N=C(N)N=C(N)N1c1ccc(CCCCc2ccc(Cl)c(S(=O)(=O)F)c2)c(Cl)c1`: the GI50 is 8.2 µM in the test on UO-31 renal; 4.51 µM in the test with OVCAR-4 ovarian; 0.306 µM in the test with SN12C renal; 0.13 µM in the test with LOX IMVI melanoma; 0.922 µM in the test on HCC-2998 colon; 0.431 µM with MDA-MB-435. The GI50 in the test with SF-295 CNS was 0.995 µM; in the test with U251 CNS, 0.437 µM; in the test with HCT-116 colon, 0.31 µM; in the test on HL-60(TB) leukemia, 0.38 µM. Further, the TGI with UO-31 renal is 28.5 µM; in the test on OVCAR-4 ovarian, 49.7 µM; in the test with SN12C renal it was 16.2 µM; with LOX IMVI melanoma, 17.5 µM; in the test on HCC-2998 colon, 15.1 µM; in the test with MDA-MB-435, 18.7 µM. The TGI with SF-295 CNS was 10.6 µM; in the test on U251 CNS, 19.6 µM; in the test on HCT-116 colon, more than 39.1 µM; in the test on HL-60(TB) leukemia it was 4.1 µM.

With `S=c1[nH]c2c(Cl)c(Cl)c(Cl)c(Cl)c2[nH]1`, the TGI in the test on UO-31 renal came out at 43.2 µM; with OVCAR-4 ovarian, 22.6 µM; in the test on SN12C renal, 47 µM; in the test on LOX IMVI melanoma, 40.8 µM; with HCC-2998 colon, 23.6 µM; in the test on MDA-MB-435, 48.8 µM. Also, the TGI with SF-295 CNS was 47.1 µM; in the test with U251 CNS it was more than 100 µM; with HCT-116 colon it was 46.8 µM; in the test on HL-60(TB) leukemia, 13 µM.

Turning to `COc1cc(/C=C/C(=O)c2cccc(-n3cc(-c4ccc(Cl)cc4)[nH]c3=O)c2)ccc1O`, the GI50 in the test with UO-31 renal was 1.26 µM; in the test on OVCAR-4 ovarian, 3.11 µM; in the test with SN12C renal, 2.81 µM; with LOX IMVI melanoma it was 1.64 µM; in the test on HCC-2998 colon it was 2.35 µM; in the test on MDA-MB-435, 2.75 µM. Also, the GI50 is 8.08 µM in the test with SF-295 CNS, 2.19 µM with U251 CNS, 1.57 µM in the test on HCT-116 colon and 4.56 µM in the test with HL-60(TB) leukemia. In addition, the TGI was more than 37 µM with UO-31 renal; more than 23.7 µM with OVCAR-4 ovarian; more than 60.9 µM in the test on SN12C renal; 4.03 µM in the test with LOX IMVI melanoma; 5.5 µM in the test on HCC-2998 colon; more than 47.5 µM with MDA-MB-435. The TGI in the test on SF-295 CNS is 31.8 µM; in the test on U251 CNS, 6.01 µM; with HCT-116 colon it was 3.82 µM; in the test with HL-60(TB) leukemia it was more than 24.3 µM.
